Measurements: paper PMC5955599, “The HTLV-1 gp21 fusion peptide inhibits antigen specific T-cell activation in-vitro and in mice” (PLoS Pathogens, 2018)

System: human peripheral T lymphocytes
Assay: Cytokine secretion from primary human peripheral T-cells (ELISA)
Format: cell-based
Details: peptide at 10μM, CD3 and CD28 antibodies, media 48 hours following activation, n = 12
Experimental: Fig 4 Primary human T-cell activation is inhibited upon HTLV FP treatment. Human peripheral T lymphocytes were isolated from whole blood and activated using CD3 and CD28 antibodies, in the presence of HTLV FP or HTLV Scr at 10μM. Media was collected 48 hours following activation and secretion of IL2, IFN-γ and IL10 was measured by ELISA assay. […] One-way ANOVA was used for statistical analysis. *P<0.05; ***P<0.001; ns, not significant.
Human peripheral T lymphocytes were isolated from whole blood of healthy adult donors by dextran sedimentation and Ficoll (Sigma) gradient separation followed by depletion of B cells using nylon wool column (Unisorb), to which B cells were adsorbed. Cells were incubated in a complete RPMI growth medium (500 ml RPMI Ca/Mg + heat inactivated FCS (10% final) + 5 ml 200 mM L-Glu (2 mM final) +5 ml […] Na pyruvate (1 mM final) + 5 ml Pen Strep antibiotics) for more than 2 h, and then non-adherent cells were harvested and transferred to a new plate, resulting in ~90% CD3+ T lymphocytes. Cells were then used for in vitro assay, in which […] were plated per well in a 96-well plate and activated using CD3 and CD28 antibodies.
Human peripheral T lymphocytes were isolated from whole blood of healthy donors and were incubated in a complete RPMI growth medium (500 ml RPMI Ca/Mg + heat inactivated FCS (10% final) + 5 ml 200 mM L-Glu (2 mM final) +5 ml […] Na pyruvate (1 mM final) + 5 ml Pen Strep antibiotics). Cells were activated using CD3 and CD28 antibodies, in the presence of relevant peptides at 10μM. Media was collected 48 hours following activation and secretion of IL2 and IFN-γ was determined according to standard protocols from R&D systems.

In the case of “AVPVAVWLVSALAMGAGVAGGITGSMSLASGKS [HTLV FP, gp21 fusion peptide of HTLV-1, MT-2 isolate]”, the “IFN-γ secretion, human T-cells” value is reported as “significant reduction in IFN-γ and IL2 secretion”, the “IL2 secretion, human T-cells” value is reported as “significant reduction in IFN-γ and IL2 secretion” and the “IL10 secretion, human T-cells” value is reported as “elevation in IL10 secretion”.
